Assay results taken from patent US20250188092A1, “RIFAMYCIN ANALOGS” (THE REGENTS OF THE UNIVERSITY OF MICHIGAN, priority 2021, published 2025).
Converted amounts (≈) assume the structure as drawn. Like-named read-outs stand apart in the source and are kept apart here.

Columns and labels:
[1] = system: non-replicating cultures of M. tuberculosis H37Rv transformed with lux ABCDE; assay: microbe, parasite or virus in culture; type: cell-based, Mycobacterium tuberculosis; conditions: for MIC90: ≥90% reduction in luminescence, read-out: MIC90 LORA; for MIC90 LORA/MABA: ratio of LORA MIC90 to MABA MIC90
[2] = system: M. tuberculosis transformed with luxABCDE; assay: microbe, parasite or virus in culture; type: cell-based, Mycobacterium tuberculosis; conditions: for MBC / MIC90: Mycobacterium tuberculosis, 168 h
[3] = Mycobacterium tuberculosis, H37RV
[4] = […], ≥99% reduction in luminescence, read-out: MBC99 Day 7 (Lux Assay) MBC
[5] = day 7 of time-kill study, read-out: MBC99

SMILES	MIC90 LORA Rel to RMP [1]	MIC90 [1, 3]	MIC90 LORA/MABA [1]	MBC99 Day 7 (Lux Assay) MBC Rel to RMP [2]	MBC [2, 4]	MIC90 ([2]; day 7 of time-kill study)	MBC [2, 5]	MIC90 [1]
CO[C@H]1/C=C/O[C@@]2(C)Oc3c(C)c(O)c4c(=O)c(c5oc6cc(N7CCN(C(=O)c8ccc9occc9c8)CC7)cc(C)c6nc-5c4c3C2=O)NC(=O)/C(C)=C\C=C\[C@H](C)[C@H](O)[C@@H](C)[C@@H](O)[C@@H](C)[C@H](OC(C)=O)[C@@H]1C [Compound 29c, (7S,9E,11S,12R,13S,14R,15R,16R,17S,18S,19E,21Z)-30-[4-(1-Benzofuran-5-carbonyl)piperazin-1-yl]-2,15,17-trihydroxy-11-methoxy-3,7,12,14,16,18,22,32-octamethyl-6,23,37-trioxo-8,27,38-trioxa-24,34-diazahexacyclo[23.11.1.1^4,7.0^5,36.0^26,35.0^28,33]octatriaconta-(36)2,4,9,19,21,25,28,30,32,34-undecaen-13-yl acetate]	0.05	0.0096 µM	2.0	0.10	0.048 µM			
CO[C@H]1/C=C/O[C@@]2(C)Oc3c(C)c(O)c4c(=O)c(c5oc6cc(N7CCCC(C(=O)Nc8ccc(Cl)cc8)C7)cc(C)c6nc-5c4c3C2=O)NC(=O)/C(C)=C\C=C\[C@H](C)[C@H](O)[C@@H](C)[C@@H](O)[C@@H](C)[C@H](OC(C)=O)[C@@H]1C (stereo partly drawn) [Compound 28, (7S,9E,11S,12R,13S,14R,15R,16R,17S,1S,19E,21Z)-30-{3-[(4-Chlorophenyl)carbamoyl]piperidin-1-yl}-2,15,17-trihydroxy-11-methoxy-3,7,12,14,16,18,22,32-octamethyl-6,23,37-trioxo-8,27,38-trioxa-24,34-diazahexacyclo[23.11.1.1^4,7.0^5,36.0^26,35.0^28,33]octatriaconta-1(36)2,4,9,19,21,25,28,30,32,34-undecaen-13-yl acetate]	0.04	0.0092 µM	2.1	0.05	0.025 µM			
CO[C@H]1/C=C/O[C@@]2(C)Oc3c(C)c(O)c4c(c3C2=O)C2=NC3(CCN(CC(C)C)CC3)NC2=C(NC(=O)/C(C)=C\C=C\[C@H](C)[C@H](O)[C@@H](C)[C@@H](O)[C@@H](C)[C@H](OC(C)=O)[C@@H]1C)C4=O [RFB, rifabutin, reference compound]	0.01	0.0023 µM (≈ 0.00195 µg/mL)	0.94	0.02	0.01 µM (≈ 0.00847 µg/mL)			
CO[C@H]1/C=C/O[C@@]2(C)Oc3c(C)c(O)c4c(=O)c(c5oc6cccc(OCc7ccc(CN8CCN(C(=O)CN9CCOCC9)CC8)cc7)c6nc-5c4c3C2=O)NC(=O)/C(C)=C\C=C\[C@H](C)[C@H](O)[C@@H](C)[C@@H](O)[C@@H](C)[C@H](OC(C)=O)[C@@H]1C [Compound 16c, (7S,9E,11S,12R,13S,14R,15R,16R,17S,18S,19E,21Z)-2,15,17-Trihydroxy-11-methoxy-3,7,12,14,16,18,22-heptamethyl-32-{[4-({4-[2-(morpholin-4-yl)acetyl]piperazin-1-yl}methyl)phenyl]methoxy}-6,23,37-trioxo-8,27,38-trioxa-24,34-diazahexacyclo[23.11.1.1^4,7.0^5,36.0^26,35.0^28,33]octatriaconta-1(36)2,4,9,19,21,25,28,30,32,34-undecaen-13-yl acetate]				0.08	0.061 µM			
CCC(=O)N1CCN(c2cc(OCc3ccc(CN4CCOCC4)cc3)c3nc4c5c6c7c(C)c(O)c5c(=O)c(c-4oc3c2)NC(=O)/C(C)=C\C=C\[C@H](C)[C@H](O)[C@@H](C)[C@@H](O)[C@@H](C)[C@H](OC(C)=O)[C@H](C)[C@@H](OC)/C=C/O[C@@](C)(O7)C6=O)CC1 [Compound 17g, (7S,9E,11S,12R,13S,14R,15R,16R,17S,18S,19E,21Z)-2,15,17-Trihydroxy-11-methoxy-3,7,12,14,16,18,22-heptamethyl-32-({4-[(morpholin-4-yl)methyl]phenyl}methoxy)-6,23,37-trioxo-30-(4-propanoylpiperazin-1-yl)-8,27,38-trioxa-24,34-diazahexacyclo-[23.11.1.1^4,7.0^5,36.0^26,35.0^28,33]octatriaconta-1(36)2,4,9,19,21,25,28,30,32,34-undecaen-13-yl acetate]	0.3	0.065 µM	5.4		> 0.1 µM			
COc1nc2ccc(Br)cc2cc1[C@@H](c1ccccc1)[C@@](O)(CCN(C)C)c1cccc2ccccc12 [Bedaquiline]						0.031 µM (≈ 0.0172 µg/mL)	0.124 µM (≈ 0.0689 µg/mL)	
NNC(=O)c1ccncc1 [Isoniazid, isoniazid, reference compound]						0.409 µM (≈ 0.0561 µg/mL)	3.59 µM (≈ 0.492 µg/mL)	
O=[N+]([O-])c1cn2c(n1)OC[C@@H](OCc1ccc(OC(F)(F)F)cc1)C2 [Pretomanid, pretomanid, reference compound]						0.47 µM (≈ 0.169 µg/mL)	0.597 µM (≈ 0.214 µg/mL)	
CO[C@H]1/C=C/O[C@@]2(C)Oc3c(C)c(O)c4c(=O)c(c5oc6cc(C)cc(N7CCN(C)CC7)c6nc-5c4c3C2=O)NC(=O)/C(C)=C\C=C\[C@H](C)[C@H](O)[C@@H](C)[C@@H](O)[C@@H](C)[C@H](OC(C)=O)[C@@H]1C [Compound 30a, (7S,9E,11S,12R,13S,14R,15R,16R,17S,18S,19E,21Z)-2,15,17-Trihydroxy-11-methoxy-3,7,12,14,16,18,22,30-octamethyl-32-(4-methylpiperazin-1-yl)-6,23,37-trioxo-8,27,38-trioxa-24,34-diazahexacyclo[23.11.1.1^4,7.0^5,36.0^26,35.0^28,33]octatriaconta-1(36)2,4,9,19,21,25,28,30,32,34-undecaen-13-yl acetate]	<0.06							<0.016 µM
CO[C@H]1/C=C/O[C@@]2(C)Oc3c(C)c(O)c4c(=O)c(c5oc6cc(N7CCN(CC(C)C)CC7)cc(N7CCN(CC(C)C)CC7)c6nc-5c4c3C2=O)NC(=O)/C(C)=C\C=C\[C@H](C)[C@H](O)[C@@H](C)[C@@H](O)[C@@H](C)[C@H](OC(C)=O)[C@@H]1C [Compound 17u, 7S,9E,11S,12R,13S,14R,15R,16R,17S,18S,19E,21Z)-2,15,17-trihydroxy-11-methoxy-3,7,12,14,16,18,22-heptamethyl-30,32-bis[4-(2-methylpropyl)piperazin-1-yl]-6,23,37-trioxo-8,27,38-trioxa-24,34-diazahexacyclo[23.11.1.1^4,7.0^5,36.0^26,35.0^28,33]octatriaconta-1,3,5(36)9,19,21,25,28,30,32,34-undecaen-13-yl acetate]				0.05	0.025 µM			
CO[C@H]1/C=C/O[C@@]2(C)Oc3c(C)c(O)c4c(=O)c(c5oc6cc(C)cc(N7CCN(CC(C)C)CC7)c6nc-5c4c3C2=O)NC(=O)/C(C)=C\C=C\[C@H](C)[C@H](O)[C@@H](C)[C@@H](O)[C@@H](C)[C@H](OC(C)=O)[C@@H]1C [Compound 30c, (7S,9E,11S,12R,13S,14R,15R,16R,17S,18S,19E,21Z)-2,15,17-Trihydroxy-11-methoxy-3,7,12,14,16,18,22,30-octamethyl-32-[4-(2-methylpropyl)piperazin-1-yl]-6,23,37-trioxo-8,27,38-trioxa-24,34-diazahexacyclo[23.11.1.1^4,7.0^5,36.0^26,35.0^28,33]octatriaconta-1(36)2,4,9,19,21,25,28,30,32,34-undecaen-13-yl acetate]	<0.06	< 0.016 µM						
